Assay results taken from paper PMC11073699, “Odorant receptors for floral- and plant-derived volatiles in the yellow fever mosquito, Aedes aegypti (Diptera: Culicidae)” (PLOS ONE, 2024).
Several values for one entry are separate records, joined by “and”; a condition that tells them apart may be missing. Equal entries are not always repeated.

Assays:
Format in all cases: cell-based
AaegOR31 = target: T1, AaegOR31 (Aedes aegypti, UniProt Q16JU0); assay: Two-electrode voltage clamp of Xenopus laevis oocytes expressing AaegOR31/Orco (blends, unitary compounds, concentration-response); details: for Raw Data (Responses in nA), concentration-response: individual oocytes (Oocyte 1-10)
T1 sequence (Q16JU0 1-381): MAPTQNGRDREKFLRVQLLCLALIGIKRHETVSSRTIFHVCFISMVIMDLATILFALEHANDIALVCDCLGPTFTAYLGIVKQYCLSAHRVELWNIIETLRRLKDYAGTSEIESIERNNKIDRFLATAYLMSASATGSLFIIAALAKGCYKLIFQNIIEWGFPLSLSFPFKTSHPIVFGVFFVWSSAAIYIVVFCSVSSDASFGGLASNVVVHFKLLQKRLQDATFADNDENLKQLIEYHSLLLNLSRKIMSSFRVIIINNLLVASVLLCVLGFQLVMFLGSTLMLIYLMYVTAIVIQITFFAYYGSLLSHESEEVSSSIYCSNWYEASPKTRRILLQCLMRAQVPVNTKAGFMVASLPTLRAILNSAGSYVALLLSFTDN
T1 sequence (Q178U6 1-478 partner): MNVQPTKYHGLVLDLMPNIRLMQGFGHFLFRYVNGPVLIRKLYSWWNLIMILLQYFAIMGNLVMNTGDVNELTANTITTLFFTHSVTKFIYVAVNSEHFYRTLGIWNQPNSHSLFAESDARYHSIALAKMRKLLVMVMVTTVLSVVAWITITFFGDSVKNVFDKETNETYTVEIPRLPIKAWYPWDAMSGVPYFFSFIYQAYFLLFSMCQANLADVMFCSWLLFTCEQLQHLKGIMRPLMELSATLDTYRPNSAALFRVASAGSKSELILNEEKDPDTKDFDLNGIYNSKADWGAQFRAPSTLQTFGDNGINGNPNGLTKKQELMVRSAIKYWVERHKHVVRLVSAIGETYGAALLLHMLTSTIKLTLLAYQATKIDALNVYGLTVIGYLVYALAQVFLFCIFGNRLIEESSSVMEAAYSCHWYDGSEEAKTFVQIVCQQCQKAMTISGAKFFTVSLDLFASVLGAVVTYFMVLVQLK
Description: (§1) The coding regions of ten AaegOR genes of interest (S3 File) and AaegOrco were synthesized by Twist Bioscience (San Francisco, CA, USA) and cloned into the pENTR plasmid. The Gateway LR directional cloning system (Invitrogen Corp., Carlsbad, CA, USA) was utilized to subclone AaegOR coding regions into the pSP64t-RFA oocyte expression plasmid. Plasmids were purified using the GeneJet Plasmid Miniprep Kit (ThermoFisher Scientific, Waltham, MA, USA). Purified plasmids were sequenced in both directions to confirm coding regions.
(§2) Chemical compounds (S6 File) used in the deorphanization of AaegORs were purchased from Acros Organics (Morris, NJ, USA), Alfa Aesar (Ward Hill, MA, USA), and ThermoFisher Scientific (Waltham, MA, USA) at the highest purity available. Compounds were stored as 1M stocks in 100% DMSO. Serial dilutions of each compound were prepared in 10% DMSO and blended by chemical class.
(§3) pSP64t-RFA: AaegOR clones were linearized using Xbal, and cRNAs were synthesized using the mMESSAGE mMACHINE ® SP6 kit (Life Technologies, Carlsbad, CA, USA). Xenopus laevis stage V-VII oocytes purchased from Xenopus1 (Dexter, MI, USA) were stored at 18°C in Incubation medium (ND96 96 with 5% dialyzed horse serum, 50μg/mL gentamycin, 100μg/mL streptomycin, 100μg/mL penicillin, and 550μg/mL sodium pyruvate). 30nL of cRNA was injected into multiple oocytes using a microinjection syringe pump (World Precision Instruments, Sarasota, FL, USA) maintained at 18°C for 48–72 hrs. Odorant blends were perfused across individual oocytes for 10–15 seconds, held at a resting membrane potential of -80 mV using an OC-725C oocyte clamp (Warner Instruments, LLC, Hamden, CT, USA). Induced currents were measured indirectly using the two-electrode voltage clamp technique (TEVC). Following each stimulus, currents were allowed to return to baseline before further stimulation. Data was captured using the Digidata 1550 B digitizer and PClamp10 software (Molecular Devices, San Jose, CA, USA). Concentration-response curves were generated by perfusing unitary odorants over oocytes at increasing concentrations from [10^-3M] to [10^-9M]. Data were analyzed using GraphPad Prism 8 (GraphPad Software Inc., La Jolla, CA, USA). At least two biological replicates were conducted at each concentration and for each compound. Data for at least seven oocytes responding to each compound was analyzed (S7 File).

AaegOR13 = target: T2, AaegOR13 (Aedes aegypti, UniProt Q16Z13); assay: Two-electrode voltage clamp of Xenopus laevis oocytes expressing AaegOR13/Orco (blends, unitary compounds, concentration-response); details: unitary compounds
T2 sequence (Q16Z13 1-389): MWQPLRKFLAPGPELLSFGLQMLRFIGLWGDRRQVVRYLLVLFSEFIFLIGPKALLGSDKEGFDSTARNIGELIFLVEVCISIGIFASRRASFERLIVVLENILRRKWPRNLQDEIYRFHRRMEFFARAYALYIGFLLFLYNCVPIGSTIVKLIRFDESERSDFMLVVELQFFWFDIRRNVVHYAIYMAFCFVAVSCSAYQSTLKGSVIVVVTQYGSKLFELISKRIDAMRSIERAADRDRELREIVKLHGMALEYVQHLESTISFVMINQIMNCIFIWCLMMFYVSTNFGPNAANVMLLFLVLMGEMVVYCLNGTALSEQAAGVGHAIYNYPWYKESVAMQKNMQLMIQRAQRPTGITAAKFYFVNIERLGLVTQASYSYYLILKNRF
T2 sequence (Q178U6 1-478 partner): T1 sequence (Q178U6 1-478 partner)
Description: as §1, §2, §3

AaegOR28 = target: T3, AaegOR28 (Aedes aegypti, UniProt Q0IGE1); assay: Two-electrode voltage clamp of Xenopus laevis oocytes expressing AaegOR28/Orco (blends, unitary compounds, concentration-response); details: AaegOR28, compounds of blend Alcohols 3
T3 sequence (Q0IGE1 1-394): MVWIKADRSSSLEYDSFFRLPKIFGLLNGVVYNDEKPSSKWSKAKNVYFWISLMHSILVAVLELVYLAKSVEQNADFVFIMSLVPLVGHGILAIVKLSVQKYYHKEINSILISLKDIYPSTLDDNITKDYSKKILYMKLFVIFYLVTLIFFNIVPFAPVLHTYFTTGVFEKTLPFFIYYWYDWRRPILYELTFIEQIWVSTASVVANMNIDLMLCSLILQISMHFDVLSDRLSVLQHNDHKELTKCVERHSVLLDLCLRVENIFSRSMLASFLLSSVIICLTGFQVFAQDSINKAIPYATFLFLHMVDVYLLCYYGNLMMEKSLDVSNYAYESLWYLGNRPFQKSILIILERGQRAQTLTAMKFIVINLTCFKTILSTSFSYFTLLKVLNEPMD
T3 sequence (Q178U6 1-478 partner): T1 sequence (Q178U6 1-478 partner)
Description: as §1, §2, §3

AaegOR15 = target: T4, AaegOR15 (Aedes aegypti, UniProt A0A6B9QIR2); assay: Two-electrode voltage clamp of Xenopus laevis oocytes expressing AaegOR15/Orco (blends, unitary compounds, concentration-response); details: unitary compounds of Alcohols 2
T4 sequence (A0A6B9QIR2 1-390): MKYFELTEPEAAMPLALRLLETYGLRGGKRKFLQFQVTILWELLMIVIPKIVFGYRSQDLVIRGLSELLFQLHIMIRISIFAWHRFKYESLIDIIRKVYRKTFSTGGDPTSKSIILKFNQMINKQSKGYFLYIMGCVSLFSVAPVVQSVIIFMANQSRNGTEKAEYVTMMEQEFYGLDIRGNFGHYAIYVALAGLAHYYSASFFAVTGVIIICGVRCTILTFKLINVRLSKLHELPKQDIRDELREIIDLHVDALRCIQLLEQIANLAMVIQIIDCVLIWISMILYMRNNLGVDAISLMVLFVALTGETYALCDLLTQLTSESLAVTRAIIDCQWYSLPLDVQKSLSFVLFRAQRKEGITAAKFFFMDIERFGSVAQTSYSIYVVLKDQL
T4 sequence (Q178U6 1-478 partner): T1 sequence (Q178U6 1-478 partner)
Description: as §1, §2, §3

[1] = AaegOR31, compounds of blend Alcohols 1, individual oocytes (Oocyte 1-8)

CC(C)=CCC/C(C)=C/CC/C(C)=C/CO [farnesol]
EC50 (AaegOR31; AaegOR31/Orco expressing oocytes, TEVC, concentration-response of normalized current): 14.3 µM | Raw Data (Responses in nA), Alcohols 1 unitary compounds (AaegOR31; [1]): 170.0 nA and 40.0 nA and 50.0 nA and 120.0 nA and 340.0 nA and 75.0 nA and 80.0 nA and 270.0 nA | Raw Data (Responses in nA), concentration-response (AaegOR31; AaegOR31, concentration 1e-7 M): 0.0 nA (4×) and 20.0 nA and 30.0 nA (2×) and 10.0 nA (2×) and 5.0 nA | Raw Data (Responses in nA), concentration-response (AaegOR31; AaegOR31, concentration 5e-7 M): 5.0 nA (3×) and 10.0 nA (4×) and 20.0 nA and 0.0 nA and 15.0 nA | Raw Data (Responses in nA), concentration-response (AaegOR31; AaegOR31, concentration 1e-6 M): 20.0 nA (6×) and 0.0 nA (2×) and 10.0 nA (2×) | Raw Data (Responses in nA), concentration-response (AaegOR31; AaegOR31, concentration 5e-6 M): 90.0 nA (2×) and 80.0 nA and 30.0 nA and 50.0 nA (2×) and 20.0 nA (2×) and 40.0 nA and 100.0 nA | Raw Data (Responses in nA), concentration-response (AaegOR31; AaegOR31, concentration 1e-5 M): 130.0 nA (2×) and 120.0 nA (2×) and 55.0 nA and 90.0 nA and 160.0 nA and 45.0 nA and 50.0 nA and 170.0 nA | Raw Data (Responses in nA), concentration-response (AaegOR31; AaegOR31, concentration 5e-5 M): 190.0 nA and 320.0 nA and 270.0 nA and 130.0 nA and 260.0 nA and 430.0 nA and 150.0 nA and 100.0 nA and 290.0 nA and 360.0 nA | Raw Data (Responses in nA), concentration-response (AaegOR31; AaegOR31, concentration 0.0001 M): 160.0 nA and 440.0 nA and 280.0 nA and 210.0 nA and 270.0 nA and 400.0 nA and 170.0 nA and 80.0 nA and 320.0 nA and 430.0 nA | Raw data (Responses in nA), unitary compounds of Indoles 1, Alcohols 1, Alcohols 3 (AaegOR13; individual oocytes 1-7): 0.0 nA

C=C[C@](C)(O)CCC=C(C)C [(R)-(-)-linalool]
Normalized response, Average, Alcohols 3 unitary compounds (AaegOR28; average of 10 oocytes): 25.1 | Raw Data (Responses in nA), Alcohols 3 unitary compounds (AaegOR28; individual oocytes 1-10): 10 nA (5×) and 5 nA (4×) and 20 nA | Normalized response, Alcohols 3 unitary compounds (AaegOR28; individual oocytes 1-10, normalized to largest response of each oocyte): 33.3 and 28.6 and 50.0 and 25.0 and 20.0 and 16.7 and 12.5 and 22.2 (2×) and 20 | Normalized response, compounds of blend Alcohols 2, Average (AaegOR15; average of 10 oocytes, 1-hexanol = 100): 2.4 | Raw data (Responses in nA), compounds of blend Alcohols 2 (AaegOR15; individual oocytes 1-10 (replicates)): 0.0 nA (3×) and 10.0 nA (2×) and 20.0 nA and 25.0 nA and 40.0 nA (2×) and 15.0 nA | Normalized response, compounds of blend Alcohols 2 (AaegOR15; individual oocytes 1-10, normalized to the largest response of each oocyte (1-hexanol = 100)): 0.0 (3×) and 1.4 and 2.6 and 3.7 (2×) and 1.7 and 5.4 and 5.5

OCC(O)CO [glycerol]
Raw Data (Responses in nA), Alcohols 1 unitary compounds (AaegOR31; [1]): 5.0 nA (2×) and 0.0 nA (6×) | Raw data (Responses in nA), unitary compounds of Indoles 1, Alcohols 1, Alcohols 3 (AaegOR13; individual oocytes 1-7): 0.0 nA

Cc1cccc(O)c1 [m-cresol]
Raw Data (Responses in nA), Alcohols 1 unitary compounds (AaegOR31; [1]): 15.0 nA and 0.0 nA (7×) | Raw data (Responses in nA), unitary compounds of Indoles 1, Alcohols 1, Alcohols 3 (AaegOR13; individual oocytes 1-7): 0.0 nA and 75.0 nA and 25.0 nA (2×) and 40.0 nA (2×) and 45.0 nA

CC1CCC(C(C)C)C(O)C1 (racemic) [DL-menthol]
Raw Data (Responses in nA), Alcohols 1 unitary compounds (AaegOR31; [1]): 5.0 nA (2×) and 0.0 nA (6×) | Raw data (Responses in nA), unitary compounds of Indoles 1, Alcohols 1, Alcohols 3 (AaegOR13; individual oocytes 1-7): 0.0 nA (4×) and 30.0 nA and 10.0 nA and 5.0 nA

CCO [ethanol]
Normalized response, Average, Alcohols 1 unitary compounds (AaegOR31; AaegOR31, compounds of blend Alcohols 1, average of 8 oocytes): 0.0 | Raw Data (Responses in nA), Alcohols 1 unitary compounds (AaegOR31; [1]): 0.0 nA | Normalized response, Alcohols 1 unitary compounds (AaegOR31; AaegOR31, compounds of blend Alcohols 1, individual oocytes (Oocyte 1-8), normalized to the strongest compound per oocyte): 0.0 | Normalized response, unitary compounds, Average (AaegOR13; average of oocytes 1-7): 0.0 | Raw data (Responses in nA), unitary compounds of Indoles 1, Alcohols 1, Alcohols 3 (AaegOR13; individual oocytes 1-7): 0.0 nA | Normalized response, unitary compounds of Indoles 1, Alcohols 1, Alcohols 3 (AaegOR13; normalized per oocyte, individual oocytes 1-7): 0.0
